Consider 1 molecule from paper PMC5762315, “Inhibition of polo-like kinase 4 (PLK4): a new therapeutic option for rhabdoid tumors and pediatric medulloblastoma” (Oncotarget, 2017).

Where “and” joins values, the source holds several entries; their conditions need not be identical. Equal values may be shown once.

Holding throughout (assay): biochemical
Common to all, as to format: biochemical

Experiment [1] concerns the target various kinases (Homo sapiens, UniProt O60674, V617F). The conditions noted are these: JAK2 JH1 JH2 V617F.
Experiment [2] has as its target T1, various kinases (Homo sapiens, UniProt O94806).
T1 sequence (O94806 1-890): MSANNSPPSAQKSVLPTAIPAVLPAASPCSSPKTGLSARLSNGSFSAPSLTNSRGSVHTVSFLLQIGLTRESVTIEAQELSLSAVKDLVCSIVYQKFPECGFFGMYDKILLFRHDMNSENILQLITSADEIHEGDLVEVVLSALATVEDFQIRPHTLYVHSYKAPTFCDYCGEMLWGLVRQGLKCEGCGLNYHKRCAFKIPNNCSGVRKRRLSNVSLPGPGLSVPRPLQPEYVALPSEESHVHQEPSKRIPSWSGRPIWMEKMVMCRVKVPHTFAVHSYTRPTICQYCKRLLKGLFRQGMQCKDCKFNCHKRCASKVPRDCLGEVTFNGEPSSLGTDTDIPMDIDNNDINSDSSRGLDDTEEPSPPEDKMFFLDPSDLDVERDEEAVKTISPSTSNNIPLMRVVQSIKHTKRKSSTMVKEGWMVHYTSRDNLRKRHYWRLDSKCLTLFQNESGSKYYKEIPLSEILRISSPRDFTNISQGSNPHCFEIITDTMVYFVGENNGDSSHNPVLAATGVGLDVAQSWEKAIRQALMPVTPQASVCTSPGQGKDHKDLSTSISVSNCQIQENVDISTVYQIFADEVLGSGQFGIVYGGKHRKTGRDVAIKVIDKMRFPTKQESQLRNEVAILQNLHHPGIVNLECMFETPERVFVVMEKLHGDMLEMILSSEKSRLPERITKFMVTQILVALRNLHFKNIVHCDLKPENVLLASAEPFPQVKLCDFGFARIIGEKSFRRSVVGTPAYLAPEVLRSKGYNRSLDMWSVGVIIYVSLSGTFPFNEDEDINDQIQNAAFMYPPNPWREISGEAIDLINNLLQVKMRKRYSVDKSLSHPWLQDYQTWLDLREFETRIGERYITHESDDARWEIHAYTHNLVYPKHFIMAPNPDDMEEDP
The conditions noted are these: kinase PRKCN (PKD3); ZLYTE.

Experiment [3] has as its target various kinases (Homo sapiens, UniProt P07949, V804E). Conditions: kinase RET V804E; ZLYTE.
Experiment [4] addresses various kinases (Homo sapiens, UniProt P08581, Y1235D). Conditions: MET (cMet) Y1235D.
Experiment [5] deals with various kinases (Homo sapiens, UniProt P16234, D842V). The conditions noted are these: PDGFRA D842V.
Sequence of various kinases (Homo sapiens, UniProt P16234, D842V) (P16234 24-1089 D842V): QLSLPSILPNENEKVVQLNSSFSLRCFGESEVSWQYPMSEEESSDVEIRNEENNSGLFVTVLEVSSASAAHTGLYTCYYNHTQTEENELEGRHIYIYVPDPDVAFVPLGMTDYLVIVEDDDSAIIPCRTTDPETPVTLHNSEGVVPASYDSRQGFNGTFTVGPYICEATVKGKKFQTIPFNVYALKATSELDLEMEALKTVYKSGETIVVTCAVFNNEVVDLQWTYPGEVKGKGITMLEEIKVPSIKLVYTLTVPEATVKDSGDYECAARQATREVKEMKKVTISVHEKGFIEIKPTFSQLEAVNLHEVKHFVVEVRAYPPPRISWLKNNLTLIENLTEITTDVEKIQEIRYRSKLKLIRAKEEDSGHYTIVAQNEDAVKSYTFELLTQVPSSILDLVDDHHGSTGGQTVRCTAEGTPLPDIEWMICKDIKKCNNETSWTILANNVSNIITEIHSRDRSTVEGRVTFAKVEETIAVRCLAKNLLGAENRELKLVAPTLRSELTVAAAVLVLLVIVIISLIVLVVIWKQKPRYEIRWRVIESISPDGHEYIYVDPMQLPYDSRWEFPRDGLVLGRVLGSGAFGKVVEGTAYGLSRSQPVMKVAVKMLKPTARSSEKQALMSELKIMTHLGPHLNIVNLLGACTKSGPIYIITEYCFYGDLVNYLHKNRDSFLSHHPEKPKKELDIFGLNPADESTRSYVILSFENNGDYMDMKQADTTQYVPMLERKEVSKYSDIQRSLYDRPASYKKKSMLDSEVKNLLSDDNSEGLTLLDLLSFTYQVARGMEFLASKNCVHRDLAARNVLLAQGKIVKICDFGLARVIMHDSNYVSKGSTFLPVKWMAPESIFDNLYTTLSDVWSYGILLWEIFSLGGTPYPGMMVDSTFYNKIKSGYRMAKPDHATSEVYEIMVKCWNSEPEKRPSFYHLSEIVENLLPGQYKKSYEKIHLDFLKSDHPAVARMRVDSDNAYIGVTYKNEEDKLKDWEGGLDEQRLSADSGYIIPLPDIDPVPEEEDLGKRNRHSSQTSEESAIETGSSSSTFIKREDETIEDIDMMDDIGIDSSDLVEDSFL
The target in experiment [6] is various kinases (Homo sapiens, UniProt Q8TDX7). Conditions: NEK7.
Sequence of various kinases (Homo sapiens, UniProt Q8TDX7) (Q8TDX7 whole entry): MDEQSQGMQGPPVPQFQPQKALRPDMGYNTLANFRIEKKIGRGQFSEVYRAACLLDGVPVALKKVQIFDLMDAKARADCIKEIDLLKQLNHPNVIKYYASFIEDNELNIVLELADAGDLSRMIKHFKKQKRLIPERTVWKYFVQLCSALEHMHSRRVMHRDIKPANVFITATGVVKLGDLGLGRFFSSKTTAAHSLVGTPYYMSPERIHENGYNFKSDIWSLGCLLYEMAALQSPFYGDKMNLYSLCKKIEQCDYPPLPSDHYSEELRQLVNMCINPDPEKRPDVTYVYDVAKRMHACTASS
Experiment [7] has as its target T2, various kinases (Homo sapiens, UniProt Q9UHD2).
T2 sequence (Q9UHD2 1-729): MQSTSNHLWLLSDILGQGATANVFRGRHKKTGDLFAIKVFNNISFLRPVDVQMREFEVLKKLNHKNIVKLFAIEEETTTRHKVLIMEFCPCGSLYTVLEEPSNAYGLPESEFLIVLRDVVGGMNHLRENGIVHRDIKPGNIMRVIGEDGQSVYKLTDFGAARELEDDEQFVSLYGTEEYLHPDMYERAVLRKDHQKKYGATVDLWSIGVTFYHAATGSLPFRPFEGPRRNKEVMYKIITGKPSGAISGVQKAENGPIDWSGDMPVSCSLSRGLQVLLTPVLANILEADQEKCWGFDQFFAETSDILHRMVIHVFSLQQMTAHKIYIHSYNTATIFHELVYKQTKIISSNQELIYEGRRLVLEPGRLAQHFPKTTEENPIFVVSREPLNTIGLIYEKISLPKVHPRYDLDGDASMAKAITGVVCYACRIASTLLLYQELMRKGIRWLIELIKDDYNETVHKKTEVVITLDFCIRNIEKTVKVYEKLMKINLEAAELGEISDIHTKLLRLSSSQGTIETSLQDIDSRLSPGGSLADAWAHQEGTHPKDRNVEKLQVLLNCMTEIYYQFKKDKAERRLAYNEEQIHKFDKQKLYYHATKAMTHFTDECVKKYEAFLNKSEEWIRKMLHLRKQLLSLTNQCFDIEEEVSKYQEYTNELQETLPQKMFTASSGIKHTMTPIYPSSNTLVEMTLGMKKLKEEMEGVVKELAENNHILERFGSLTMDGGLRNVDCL
The conditions noted are these: kinase TBK1; ZLYTE.

Sequence of various kinases (Homo sapiens, UniProt P07949, V804E) (P07949 29-1114 V804E): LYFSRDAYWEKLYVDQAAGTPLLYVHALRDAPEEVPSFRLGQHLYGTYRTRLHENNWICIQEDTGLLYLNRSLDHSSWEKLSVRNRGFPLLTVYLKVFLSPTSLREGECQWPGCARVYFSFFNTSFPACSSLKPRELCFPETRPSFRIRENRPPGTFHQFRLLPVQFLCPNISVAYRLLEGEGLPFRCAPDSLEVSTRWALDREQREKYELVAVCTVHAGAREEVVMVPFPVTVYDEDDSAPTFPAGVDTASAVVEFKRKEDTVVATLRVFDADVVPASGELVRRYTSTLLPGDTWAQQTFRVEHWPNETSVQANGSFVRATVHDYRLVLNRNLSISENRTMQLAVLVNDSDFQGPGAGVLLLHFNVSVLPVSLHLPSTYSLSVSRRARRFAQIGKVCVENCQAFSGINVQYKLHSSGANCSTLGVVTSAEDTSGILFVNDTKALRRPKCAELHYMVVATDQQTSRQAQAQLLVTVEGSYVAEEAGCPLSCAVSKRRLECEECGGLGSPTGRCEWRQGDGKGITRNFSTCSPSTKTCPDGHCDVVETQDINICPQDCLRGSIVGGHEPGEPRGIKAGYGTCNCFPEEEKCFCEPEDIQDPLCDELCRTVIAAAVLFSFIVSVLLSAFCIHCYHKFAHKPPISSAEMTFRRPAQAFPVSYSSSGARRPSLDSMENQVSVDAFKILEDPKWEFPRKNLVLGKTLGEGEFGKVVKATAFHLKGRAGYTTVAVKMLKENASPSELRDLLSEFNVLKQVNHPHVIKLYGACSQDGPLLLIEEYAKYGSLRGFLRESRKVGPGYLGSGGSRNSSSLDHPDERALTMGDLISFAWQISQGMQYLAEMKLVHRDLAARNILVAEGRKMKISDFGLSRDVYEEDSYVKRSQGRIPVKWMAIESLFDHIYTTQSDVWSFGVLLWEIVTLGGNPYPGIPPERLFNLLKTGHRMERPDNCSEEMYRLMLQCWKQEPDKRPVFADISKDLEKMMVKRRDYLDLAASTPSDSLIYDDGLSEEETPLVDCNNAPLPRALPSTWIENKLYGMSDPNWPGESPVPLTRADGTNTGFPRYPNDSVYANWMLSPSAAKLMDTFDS
Sequence of various kinases (Homo sapiens, UniProt P08581, Y1235D) (P08581 25-1390 Y1235D): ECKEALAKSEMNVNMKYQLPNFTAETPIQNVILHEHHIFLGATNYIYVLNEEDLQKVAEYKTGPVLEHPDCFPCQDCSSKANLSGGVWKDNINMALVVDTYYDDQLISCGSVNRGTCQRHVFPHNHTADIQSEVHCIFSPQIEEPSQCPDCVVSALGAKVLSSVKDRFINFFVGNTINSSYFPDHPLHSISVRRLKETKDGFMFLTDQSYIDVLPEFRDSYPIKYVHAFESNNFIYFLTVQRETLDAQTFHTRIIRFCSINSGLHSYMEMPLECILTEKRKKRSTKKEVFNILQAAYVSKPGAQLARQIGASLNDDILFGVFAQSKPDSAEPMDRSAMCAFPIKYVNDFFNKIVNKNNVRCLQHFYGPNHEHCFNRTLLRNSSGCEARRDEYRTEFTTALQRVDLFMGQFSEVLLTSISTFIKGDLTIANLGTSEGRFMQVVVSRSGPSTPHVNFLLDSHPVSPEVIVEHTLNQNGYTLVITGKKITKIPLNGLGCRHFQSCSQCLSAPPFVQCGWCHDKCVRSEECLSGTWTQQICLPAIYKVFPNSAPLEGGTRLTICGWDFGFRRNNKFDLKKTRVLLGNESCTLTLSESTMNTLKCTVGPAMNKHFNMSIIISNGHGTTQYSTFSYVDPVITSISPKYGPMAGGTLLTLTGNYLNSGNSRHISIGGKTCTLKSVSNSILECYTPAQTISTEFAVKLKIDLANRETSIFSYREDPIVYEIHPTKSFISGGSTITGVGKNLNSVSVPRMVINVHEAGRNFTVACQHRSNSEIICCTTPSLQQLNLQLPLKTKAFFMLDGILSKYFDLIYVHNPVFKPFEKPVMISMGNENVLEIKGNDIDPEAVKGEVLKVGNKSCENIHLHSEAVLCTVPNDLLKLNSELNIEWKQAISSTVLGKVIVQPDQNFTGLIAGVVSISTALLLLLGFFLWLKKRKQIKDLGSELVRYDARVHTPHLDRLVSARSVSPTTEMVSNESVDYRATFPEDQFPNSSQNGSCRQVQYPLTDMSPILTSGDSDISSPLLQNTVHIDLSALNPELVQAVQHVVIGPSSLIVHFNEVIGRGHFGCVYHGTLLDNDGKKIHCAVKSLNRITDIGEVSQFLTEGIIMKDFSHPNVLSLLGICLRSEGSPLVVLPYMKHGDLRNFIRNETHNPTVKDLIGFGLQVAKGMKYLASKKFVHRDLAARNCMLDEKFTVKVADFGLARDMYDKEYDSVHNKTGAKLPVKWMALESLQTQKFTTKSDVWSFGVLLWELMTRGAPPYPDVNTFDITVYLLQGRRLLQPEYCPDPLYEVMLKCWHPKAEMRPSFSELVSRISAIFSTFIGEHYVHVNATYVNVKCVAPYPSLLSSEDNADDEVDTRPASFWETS
Sequence of various kinases (Homo sapiens, UniProt O60674, V617F) (O60674 whole entry V617F): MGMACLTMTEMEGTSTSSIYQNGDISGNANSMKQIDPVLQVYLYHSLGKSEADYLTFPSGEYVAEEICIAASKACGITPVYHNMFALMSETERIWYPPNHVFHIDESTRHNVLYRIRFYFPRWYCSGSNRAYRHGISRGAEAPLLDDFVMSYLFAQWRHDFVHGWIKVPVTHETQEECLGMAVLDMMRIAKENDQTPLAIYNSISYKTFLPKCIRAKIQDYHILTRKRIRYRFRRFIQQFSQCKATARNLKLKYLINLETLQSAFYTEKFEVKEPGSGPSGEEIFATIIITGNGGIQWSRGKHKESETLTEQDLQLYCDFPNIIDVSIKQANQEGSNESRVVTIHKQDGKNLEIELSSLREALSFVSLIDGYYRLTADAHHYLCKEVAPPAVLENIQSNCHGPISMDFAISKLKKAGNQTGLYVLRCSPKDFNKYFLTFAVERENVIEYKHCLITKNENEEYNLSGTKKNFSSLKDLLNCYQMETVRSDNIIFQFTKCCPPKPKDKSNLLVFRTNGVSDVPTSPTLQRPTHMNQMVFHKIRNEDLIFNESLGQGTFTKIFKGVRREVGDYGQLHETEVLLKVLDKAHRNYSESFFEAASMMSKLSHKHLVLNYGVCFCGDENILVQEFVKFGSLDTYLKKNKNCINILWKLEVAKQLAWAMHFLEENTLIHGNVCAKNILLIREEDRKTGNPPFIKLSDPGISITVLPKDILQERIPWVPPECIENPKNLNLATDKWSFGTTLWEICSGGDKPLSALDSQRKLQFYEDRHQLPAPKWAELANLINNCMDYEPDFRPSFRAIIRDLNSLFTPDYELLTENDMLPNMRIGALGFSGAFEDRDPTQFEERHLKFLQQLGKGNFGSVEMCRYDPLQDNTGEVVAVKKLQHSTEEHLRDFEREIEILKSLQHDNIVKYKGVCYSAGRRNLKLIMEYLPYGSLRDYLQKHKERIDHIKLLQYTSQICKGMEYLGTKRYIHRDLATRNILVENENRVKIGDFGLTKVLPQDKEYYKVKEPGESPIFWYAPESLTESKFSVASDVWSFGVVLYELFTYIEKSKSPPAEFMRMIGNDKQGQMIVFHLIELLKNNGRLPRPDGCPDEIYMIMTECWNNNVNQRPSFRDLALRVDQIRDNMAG

For the molecule `COc1ccc2c(c1)[C@]1(C[C@H]1c1ccc3c(/C=C/c4ccc(CN5C[C@@H](C)O[C@@H](C)C5)cc4)n[nH]c3c1)C(=O)N2` [CFI-400945], the “% Inhibition” value on various kinases [1] is 8% and 9%; on various kinases [4], 5% and 6%; on various kinases [5], 4% and 10%; at various kinases [6], 0% and 6%. The “% Inhibition Average” value on various kinases [2] stood at 4%; on various kinases [3] it was 0%; at various kinases [7], 4%. For the same molecule, the “% Inhibition Duplicate #1” value on various kinases [2] is on record as 3%; on various kinases [3], 0%; on various kinases [7] it was 3%. In addition, the results for the “% Inhibition Duplicate #2” value at various kinases [2], at various kinases [3] and on various kinases [7] were 4%, 0% and 4%, respectively.

What is called % Inhibition is the drop in the measured response relative to a control, in per cent.
